Laboratory results published in ChEMBL document CHEMBL1148604 (J Med Chem, 2006).
pIC50: −log10 of the molar value. In brackets after ≈: the same amount, converted by molar mass. Activity calls are given as the source filed them. No cut-off for these calls is given here.

Tests used:
[1] = tested on: Mycobacterium tuberculosis; assay: Inhibitory activity against Mycobacterium tuberculosis H37Rv; type: functional
[2] = target: T1, 3-oxoacyl-[acyl-carrier-protein] synthase 2 (Mycobacterium tuberculosis) (UniProt P9WQD7); assay: Inhibitory activity against KasB from Mycobacterium tuberculosis H37Rv at 100 uM
T1 sequence (whole entry): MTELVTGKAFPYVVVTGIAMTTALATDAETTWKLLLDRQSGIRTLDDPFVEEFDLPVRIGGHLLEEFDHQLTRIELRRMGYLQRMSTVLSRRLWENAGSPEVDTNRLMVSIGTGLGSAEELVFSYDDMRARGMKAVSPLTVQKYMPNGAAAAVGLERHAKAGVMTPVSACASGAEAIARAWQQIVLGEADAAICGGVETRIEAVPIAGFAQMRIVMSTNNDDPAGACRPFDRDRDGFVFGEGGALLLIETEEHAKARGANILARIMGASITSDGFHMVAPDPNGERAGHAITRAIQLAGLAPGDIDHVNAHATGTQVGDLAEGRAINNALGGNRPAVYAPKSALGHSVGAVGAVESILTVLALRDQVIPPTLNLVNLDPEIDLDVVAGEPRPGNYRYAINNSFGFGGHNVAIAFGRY

[3] = target: T2, 3-oxoacyl-[acyl-carrier-protein] synthase 1 (Mycobacterium tuberculosis) (UniProt P9WQD9); assay: Inhibitory activity against KasA from Mycobacterium tuberculosis H37Rv at 100 uM
T2 sequence (whole entry): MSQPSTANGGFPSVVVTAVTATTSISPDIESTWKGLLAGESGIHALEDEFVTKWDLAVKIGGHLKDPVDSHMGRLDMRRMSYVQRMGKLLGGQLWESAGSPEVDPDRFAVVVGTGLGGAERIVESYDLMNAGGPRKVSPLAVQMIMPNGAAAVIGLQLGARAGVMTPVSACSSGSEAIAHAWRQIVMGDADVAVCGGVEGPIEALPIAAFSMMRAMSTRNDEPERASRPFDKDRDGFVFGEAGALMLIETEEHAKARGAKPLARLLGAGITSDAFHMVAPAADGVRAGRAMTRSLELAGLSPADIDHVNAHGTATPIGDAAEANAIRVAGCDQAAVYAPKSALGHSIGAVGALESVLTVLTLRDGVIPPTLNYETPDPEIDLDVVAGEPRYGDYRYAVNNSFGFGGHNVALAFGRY

[4] = target: T3, 3-oxoacyl-[acyl-carrier-protein] synthase 1 (Escherichia coli K-12) (UniProt P0A953); assay: Inhibitory activity against FabB from Escherichia coli ANSI at 100 uM
T3 sequence (whole entry): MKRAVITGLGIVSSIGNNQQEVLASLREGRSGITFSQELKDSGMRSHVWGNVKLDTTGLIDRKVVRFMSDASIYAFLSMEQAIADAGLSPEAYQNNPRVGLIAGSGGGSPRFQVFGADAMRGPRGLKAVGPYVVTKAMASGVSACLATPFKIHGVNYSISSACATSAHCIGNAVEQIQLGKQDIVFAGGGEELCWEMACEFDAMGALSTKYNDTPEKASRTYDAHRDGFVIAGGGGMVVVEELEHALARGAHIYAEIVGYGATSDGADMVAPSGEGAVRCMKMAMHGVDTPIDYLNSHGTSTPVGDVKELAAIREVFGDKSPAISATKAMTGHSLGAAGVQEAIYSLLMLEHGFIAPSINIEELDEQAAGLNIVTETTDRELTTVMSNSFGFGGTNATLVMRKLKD

[5] = target: T4, 3-oxoacyl-[acyl-carrier-protein] synthase 3 (Escherichia coli) (UniProt C3TDZ2); assay: Inhibitory activity against FabH from Escherichia coli ANSI at 100 uM
T4 sequence (whole entry): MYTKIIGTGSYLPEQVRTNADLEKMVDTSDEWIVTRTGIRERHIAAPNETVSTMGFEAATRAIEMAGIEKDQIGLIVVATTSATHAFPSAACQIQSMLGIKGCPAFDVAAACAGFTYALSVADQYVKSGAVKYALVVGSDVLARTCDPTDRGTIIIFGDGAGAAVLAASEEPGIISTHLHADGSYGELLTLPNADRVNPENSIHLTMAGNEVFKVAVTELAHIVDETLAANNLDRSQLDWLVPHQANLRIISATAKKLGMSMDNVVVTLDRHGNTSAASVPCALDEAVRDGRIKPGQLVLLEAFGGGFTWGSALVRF

wild-type apo-KasA = wild-type apo-KasA (Mycobacterium tuberculosis, UniProt P9WQD9); assay: Inhibitory activity against KasA from Mycobacterium tuberculosis H37Rv
[6] = target: T5, Mycobacterial beta-ketoacyl-[acyl-carrier-protein] synthase III (Mycobacterium tuberculosis) (UniProt P9WNG3); assay: Inhibitory activity against FabH from Mycobacterium tuberculosis H37Rv at 100 uM
T5 sequence (whole entry): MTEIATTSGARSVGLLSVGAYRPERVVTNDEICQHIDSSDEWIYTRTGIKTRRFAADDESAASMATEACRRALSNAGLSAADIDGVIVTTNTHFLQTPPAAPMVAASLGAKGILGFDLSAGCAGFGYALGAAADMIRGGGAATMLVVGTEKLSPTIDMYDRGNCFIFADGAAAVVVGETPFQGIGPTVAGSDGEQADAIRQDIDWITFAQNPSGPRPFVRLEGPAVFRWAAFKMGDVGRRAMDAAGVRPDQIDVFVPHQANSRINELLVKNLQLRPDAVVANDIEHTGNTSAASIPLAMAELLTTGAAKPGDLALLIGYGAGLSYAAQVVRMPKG

Escherichia coli = assay: Inhibitory activity against Escherichia coli ANSI; type: functional
[7] = target: T6, 3-oxoacyl-[acyl-carrier-protein] synthase 3 (Escherichia coli, UniProt C3TDZ2); assay: Inhibitory activity against FabH from Escherichia coli ANSI
T6 sequence (C3TDZ2 whole entry): T4 sequence (whole entry)

Fatty acid synthase [8] = target: T7, Fatty acid synthase (Homo sapiens, UniProt P49327); assay: Inhibitory activity against human FAS1 at 100 uM
Target sequence in this assay (P49327 whole entry, looked up): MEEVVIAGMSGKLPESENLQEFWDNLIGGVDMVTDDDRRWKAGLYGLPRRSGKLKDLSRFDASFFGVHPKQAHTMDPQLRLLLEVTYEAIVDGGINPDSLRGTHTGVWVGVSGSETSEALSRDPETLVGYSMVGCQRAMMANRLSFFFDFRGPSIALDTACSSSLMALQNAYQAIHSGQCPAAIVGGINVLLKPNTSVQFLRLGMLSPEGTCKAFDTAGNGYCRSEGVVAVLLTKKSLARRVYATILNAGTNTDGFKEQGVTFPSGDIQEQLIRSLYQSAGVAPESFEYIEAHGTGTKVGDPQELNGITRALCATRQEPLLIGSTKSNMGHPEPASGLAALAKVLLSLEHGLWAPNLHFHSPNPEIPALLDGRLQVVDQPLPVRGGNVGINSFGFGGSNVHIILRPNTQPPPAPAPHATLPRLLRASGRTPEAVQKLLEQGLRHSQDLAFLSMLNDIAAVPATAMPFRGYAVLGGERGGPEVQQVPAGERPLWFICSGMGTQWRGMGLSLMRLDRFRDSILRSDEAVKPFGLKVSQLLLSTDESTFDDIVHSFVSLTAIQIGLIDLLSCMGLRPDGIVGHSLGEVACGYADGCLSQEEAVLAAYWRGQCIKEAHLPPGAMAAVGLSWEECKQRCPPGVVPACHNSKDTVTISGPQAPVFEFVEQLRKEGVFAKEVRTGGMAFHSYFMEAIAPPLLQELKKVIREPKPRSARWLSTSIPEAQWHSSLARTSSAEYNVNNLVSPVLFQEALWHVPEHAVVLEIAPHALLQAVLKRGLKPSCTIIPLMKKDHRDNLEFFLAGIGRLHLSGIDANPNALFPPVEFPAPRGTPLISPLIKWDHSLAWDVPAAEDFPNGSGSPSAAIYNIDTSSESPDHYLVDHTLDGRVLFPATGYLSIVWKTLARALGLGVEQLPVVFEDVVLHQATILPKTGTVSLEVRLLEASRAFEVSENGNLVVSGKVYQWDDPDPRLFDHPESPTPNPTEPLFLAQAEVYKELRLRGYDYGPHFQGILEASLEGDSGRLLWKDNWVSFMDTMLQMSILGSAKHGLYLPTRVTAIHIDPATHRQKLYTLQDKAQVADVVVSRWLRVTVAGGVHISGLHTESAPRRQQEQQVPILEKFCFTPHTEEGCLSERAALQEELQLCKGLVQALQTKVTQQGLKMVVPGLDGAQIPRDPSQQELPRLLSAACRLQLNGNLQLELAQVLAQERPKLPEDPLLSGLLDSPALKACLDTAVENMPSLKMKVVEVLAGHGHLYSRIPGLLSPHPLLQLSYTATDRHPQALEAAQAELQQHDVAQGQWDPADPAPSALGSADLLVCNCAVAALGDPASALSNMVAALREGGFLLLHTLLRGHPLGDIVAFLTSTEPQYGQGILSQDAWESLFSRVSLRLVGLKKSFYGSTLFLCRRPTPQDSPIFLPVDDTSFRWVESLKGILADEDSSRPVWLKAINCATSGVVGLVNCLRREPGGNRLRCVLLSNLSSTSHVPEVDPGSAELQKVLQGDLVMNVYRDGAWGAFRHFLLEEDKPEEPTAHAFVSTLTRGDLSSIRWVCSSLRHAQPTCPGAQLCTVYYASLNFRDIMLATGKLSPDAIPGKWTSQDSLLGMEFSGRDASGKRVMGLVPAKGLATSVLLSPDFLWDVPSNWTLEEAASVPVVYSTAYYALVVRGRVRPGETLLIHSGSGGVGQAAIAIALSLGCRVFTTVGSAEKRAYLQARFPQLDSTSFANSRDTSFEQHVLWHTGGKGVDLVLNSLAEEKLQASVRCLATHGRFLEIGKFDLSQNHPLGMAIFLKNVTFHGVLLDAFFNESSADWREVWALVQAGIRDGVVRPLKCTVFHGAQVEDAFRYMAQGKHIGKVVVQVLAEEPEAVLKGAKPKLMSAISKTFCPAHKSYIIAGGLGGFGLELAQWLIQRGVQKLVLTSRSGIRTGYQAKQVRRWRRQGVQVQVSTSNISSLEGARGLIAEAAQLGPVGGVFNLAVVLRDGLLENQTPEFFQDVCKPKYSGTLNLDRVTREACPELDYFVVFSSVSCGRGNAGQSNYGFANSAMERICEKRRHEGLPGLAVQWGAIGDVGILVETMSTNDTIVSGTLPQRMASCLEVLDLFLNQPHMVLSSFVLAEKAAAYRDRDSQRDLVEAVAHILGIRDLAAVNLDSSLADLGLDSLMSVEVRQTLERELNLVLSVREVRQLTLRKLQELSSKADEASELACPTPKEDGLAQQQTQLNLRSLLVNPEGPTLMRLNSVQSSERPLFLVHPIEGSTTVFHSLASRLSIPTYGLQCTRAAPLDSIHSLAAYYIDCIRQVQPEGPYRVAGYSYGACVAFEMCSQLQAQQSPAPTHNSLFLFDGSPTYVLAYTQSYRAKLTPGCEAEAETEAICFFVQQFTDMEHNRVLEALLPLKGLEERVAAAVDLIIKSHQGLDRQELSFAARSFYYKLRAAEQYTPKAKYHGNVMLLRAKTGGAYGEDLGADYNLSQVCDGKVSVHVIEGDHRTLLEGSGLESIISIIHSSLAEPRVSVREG

[9] = target: T8, 3-oxoacyl-[acyl-carrier-protein] synthase 2 (Mycobacterium tuberculosis, UniProt P9WQD7); assay: Inhibitory activity against KasB from Mycobacterium tuberculosis H37Rv
T8 sequence (P9WQD7 whole entry): T1 sequence (whole entry)

[10] = target: T9, Mycobacterial beta-ketoacyl-[acyl-carrier-protein] synthase III (Mycobacterium tuberculosis, UniProt P9WNG3); assay: Inhibitory activity against FabH from Mycobacterium tuberculosis H37Rv
T9 sequence (P9WNG3 whole entry): T5 sequence (whole entry)

[11] = target: T10, 3-oxoacyl-[acyl-carrier-protein] synthase 1 (Escherichia coli K-12, UniProt P0A953); assay: Inhibitory activity against FabB from Escherichia coli ANSI
T10 sequence (P0A953 whole entry): T3 sequence (whole entry)

Fatty acid synthase [12] = target: T7, Fatty acid synthase; assay: Inhibitory activity against human FAS1
Target sequence in this assay (P49327 whole entry): as the sequence (P49327 whole entry, looked up) above

Compound | MIC [1] [µM] | inhibition [2] | inhibition [3] | inhibition [4] | inhibition [5] | pIC50 (wild-type apo-KasA) | inhibition [6] | MIC (Escherichia coli) [µM] | pIC50 [7] | inhibition (Fatty acid synthase [8]) | pIC50 [9] | pIC50 [10] | pIC50 [11] | pIC50 (Fatty acid synthase [12])
C=CCCCC1(C)SC(=O)C(C)=C1O (stereo unspecified) | > 1000 | inactive | < 30% | inactive | inactive | < 4.00 | inactive | > 1000 | – | – | – | – | – | –
CC1=C(O)C(C)(CC2CC2)SC1=O (stereo unspecified) | > 1000 | inactive | inactive | inactive | < 30% | – | inactive | > 1000 | < 4.00 | – | – | – | – | –
C=CCCCCC1(C)SC(=O)C(C)=C1O (stereo unspecified) | 1000 (≈ 226 µg/mL) | inactive | < 30% | inactive | inactive | < 4.00 | inactive | > 1000 | – | – | – | – | – | –
CC(C)=CCC1(C)SC(O)=C(C)C1=O (stereo unspecified) | > 1000 | inactive | < 30% | inactive | inactive | < 4.00 | inactive | > 1000 | – | – | – | – | – | –
CC/C(C)=C/[C@@]1(C)SC(O)=C(C)C1=O | > 1000 | inactive | inactive | inactive | – | – | – | > 200 | – | inactive | – | – | – | –
CC(C)=CCC/C(C)=C/CC/C(C)=C/CC1(C)SC(O)=C(C)C1=O (stereo unspecified) | > 1000 | < 30% | inactive | inactive | < 30% | – | inactive | 200 (≈ 69.7 µg/mL) | < 4.00 | – | < 4.00 | – | – | –
CC1=C(O)C(C)(Cc2ccc(Cl)c(Cl)c2)SC1=O (stereo unspecified) | 500 (≈ 152 µg/mL) | inactive | inactive | inactive | < 30% | – | < 30% | > 1000 | < 4.00 | – | – | < 4.00 | – | –
CC[C@H](C)CC1(C)SC(O)=C(C)C1=O (stereo partly specified) | 500 (≈ 107 µg/mL) | inactive | inactive | inactive | < 30% | – | inactive | > 1000 | < 4.00 | – | – | – | – | –
C=CC(C)C[C@@]1(C)SC(O)=C(C)C1=O (stereo partly specified) | > 1000 | inactive | inactive | inactive | – | – | – | > 200 | – | inactive | – | – | – | –
CCC(C)C[C@@]1(C)SC(O)=C(C)C1=O (stereo partly specified) | > 1000 | inactive | inactive | inactive | – | – | – | > 200 | – | inactive | – | – | – | –
CCCCCCCCC1(C)SC(O)=C(C)C1=O (stereo unspecified) | > 1000 | inactive | inactive | inactive | < 30% | – | < 30% | 200 (≈ 51.3 µg/mL) | < 4.00 | – | – | < 4.00 | – | –
C=C/C=C/C1(C)SC(=O)C(C)=C1O (stereo unspecified) | 1000 (≈ 196 µg/mL) | – | – | – | – | 4.60 | – | 200 (≈ 39.3 µg/mL) | – | inactive | 3.40 | – | 3.30 | –
C=C/C(C)=C/C1(C)SC(O)=C(C)C1=O (racemic) [RAC-THIOLACTOMYCIN] | 125 (≈ 26.3 µg/mL) | – | – | – | – | – | – | 12 (≈ 2.52 µg/mL) | – | – | – | – | 4.70 | 3.84
C/C=C/C(C)=C/[C@@]1(C)SC(O)=C(C)C1=O | 1000 (≈ 224 µg/mL) | – | – | – | – | 4.30 | – | 200 (≈ 44.9 µg/mL) | – | inactive | 3.40 | – | 3.30 | –
